Source: patent US12612389B2, “Benzofuran-based N-acylhydrazone derivative and pharmaceutical composition comprising same” (KOREA RESEARCH INSTITUTE OF BIOSCIENCE AND BIOTECHNOLOGY, priority 2019, dated 2026)
Like-named read-outs stand apart in the source and are kept apart here.

Tests used:
[1] = Metabolic stability test in liver microsomes; format: in vitro ADME; settings: 0.5 mg protein/mL, 37° C.
Protocol: (§1) The test compounds at a concentration of […] were administered in the presence or absence of NADPH (1 mM) to liver […] (0.5 mg protein/mL) of humans, rats and mice, and metabolic stability was tested at 37° C. for 30 minutes. In addition, buspirone was used as a positive control. Results thereof are shown in Table below and FIGS. 4A to 4E.

[2] = Solubility test in administration solvent; format: physicochemical; settings: 2.0 mg/mL; Solvent A 20%, Solvent B 20%, Solvent C 60% (dimethylacetamide/Cremophor EL/20% HPbCD)
Protocol: The test substances were accurately weighed and placed in a glass vial. Then, solvent A was added in an amount corresponding to 20% of the desired final solution volume, and the mixture was completely dissolved by treatment with a vortexer and sonication. Next, solvent B in an amount corresponding to 10% or 20% of the final solution volume was added and mixed well. […] Finally, the mixture was subjected to sonication for 30 seconds. The mixed solution was prepared and used immediately before administration in the experiment. • Solvent A: Dimethylacetamide produced by SigmaAldrich • Solvent B: Cremophor EL produced by SigmaAldrich • Solvent C: 20% HPbCD ((2-Hydroxypropyl)-β-cyclodextrin produced by SigmaAldrich) in deionized water

HeLa CCL2 tumor = test: Anticancer effect test in human cervical cancer cell (HeLa CCL2) transplantation model; format: in vivo, BALB/C female nude mouse; settings: 25 mg/kg intraperitoneally, p<0.001
Protocol: After thawing the human […] cancer cell line HeLa CCL2 that was stored frozen in liquid nitrogen, cell culture was performed. The cells were cultured for an appropriate period in a CO2 incubator (Forma, USA) at a temperature of 37° C. and a CO2 concentration of 5%.
On the last day of culture, all cancer cells were collected and counted, and the cell concentration was adjusted to 1×10^7 cells/mL using serum free media. The cell culture solution as adjusted above was injected subcutaneously into the axillary region between the shoulder blade and the chest wall in an amount of 0.3 mL (3×10^6 cells/mouse) per BALB/C female nude mouse (5 weeks old, Nara Biotech).
Immediately prior to administration, the compounds were dissolved in a mixture of DMAC (dimethylacetamide) 20%+Tween80 5%+20% HPbCD (2-hydroxypropyl-β-cyclodextrin) 75% at an appropriate concentration and used. The prepared substances were repeatedly administered intraperitoneally in an amount of 0.2 mL (10 mL/kg) per 20 g of a mouse according to the following administration schedule. • carrier, the compound of Example 4, the compound of Example 8, and the compound of Example 15 (25 mg/kg), 0-28 days 4.3. Confirmation of Change in Tumor Size
After cancer cell transplantation, the tumor size of each animal subject was measured a total of 11 times in 3 directions using a vernier caliper from when the mean tumor size reached 57.0 mm^3 until Day 28, and calculated by the formula of length×width×height/2.
In order to test the degree of toxicity upon repeated intraperitoneal administration of the Example compound to HeLa CCL2 cancer cell transplantation nude mice, general symptoms and body weight changes of the animal subjects were observed during the administration period.
On Day 28 after drug administration, blood was collected from the mouse ophthalmic veins in 2 hours post the last administration, and the mice were killed using CO2 gas. Images of the mice were taken, and the tumor was separated and weighed on an electronic scale. After taking the images, each tumor was divided in half and fixed in liquid nitrogen and formalin, respectively. On […] after drug administration, the HeLa CCL2 tumor was excised and weighed.

[3] = Pharmacokinetic (PK) test; format: in vivo, male ICR mice; settings: for Vd: iv; for AUC(0-t): read-out: AUClast, Mean
Protocol: Pharmacokinetic (PK) parameters of the Example compounds according to the present invention were determined using male ICR mice as follows (n=3).
Pharmacokinetic (PK) parameters were measured by non-compartmental analysis of plasma concentration-time curves using Kinetica™ 4.4.1 (Thermo Fisher Scientific, USA). Results thereof are shown in Table below and FIGS. 5A to 5C. In Table below, “F” parameter was calculated using AUClast, “N/A” indicates the phrase not applicable, and “NC” indicates the phrase not calculated.

HeLa cells = test: Anti-proliferative activity test in HeLa cell line (MTT); format: cell-based; settings: Homo sapiens, 48 h, grown for 2 days, mean of 2
Protocol: HeLa cells (American Type Culture Collection: ATCC, USA), a human cervical cancer cell line, were seeded in a 96-well plate at 3×10^3 cells/well, and the cells were then treated with compounds of Examples or Comparative Example according to the present invention and grown for 2 days. Then, MTT (3-(4,5-dimethylthiazol-2-yl)-2,5-diphenyltetrazolium bromide) reagent was added at 10 μL/well. After 2 hours, absorbance was measured at “OD 450” and statistical values were obtained using Prism™6 program. The data shown in Table below are mean values of results obtained by repeating the analysis twice.

[4] = Stability in buffer (line of the metabolic stability test); format: in vitro ADME
Protocol: as §1

Stability test in plasma [5] = format: in vitro ADME; settings: Rat plasma, 37° C.
Protocol: In order to test the stability (in vivo) of the Example compounds according to the present invention, the compounds of Examples 2, 3, 4, 8 and 15 were administered intravenously, and plasma concentrations over time were observed. In addition, procaine was used as a positive control. Plasma stability was measured three times by administering the test compound at a concentration of 5 mM to human, rat, or mouse plasma (90 μL) at 37° C. Results thereof are shown in Table below and FIGS. 3A to 3E.

Stability test in plasma [6] = format: in vitro ADME; design: Residue % (180 minutes elapsed), Mean: dose or concentration left out as unconfirmed; settings: 37° C.
Protocol: In order to test the stability (in vivo) of the Example compounds according to the present invention, the compounds of Examples 2, 3, 4, 8 and 15 were administered intravenously, and plasma concentrations over time were observed. In addition, procaine was used as a positive control. Plasma stability was measured three times by administering the test compound at a concentration […] to human, rat, or mouse plasma (90 μL) at 37° C. Results thereof are shown in Table below and FIGS. 3A to 3E.

[7] = male, ICR, mouse, plasma, Oral administration, 20 mg/kg, mice, n=3

Structure (SMILES): CCOCCn1c(Cl)c(/C=N/NC(=O)c2cc3cc(OC)ccc3o2)c2cc(OC)ccc21 [Example 15, (E)-N′-[(2-chloro-1-(2-ethoxyethyl)-5-methoxy-1H-indol-3-yl]methylene}-5-methoxybenzofuran-2-carbohydrazide]
- Residue (%) after culturing for 30 min ([1]; Human, +NADPH): 7.94 ± 0.74%
- Residue (%) after culturing for 30 min ([1]; Human, −NADPH): 88.63 ± 1.61%
- Residue (%) after culturing for 30 min ([1]; Mouse, +NADPH): 4.82 ± 0.52%
- Residue (%) after culturing for 30 min ([1]; Mouse, −NADPH): 86.31 ± 1.72%
- Residue (%) after culturing for 30 min ([1]; Rat, +NADPH): 3.47 ± 0.25%
- Residue (%) after culturing for 30 min ([1]; Rat, −NADPH): 94.95 ± 1.93%
- Solubility evaluation result [2]: Soluble
- tumor growth inhibition (HeLa CCL2 tumor; 0-28 days, Day 28, tumor size): 40.13%
- reduction in tumor weight compared with solvent control (HeLa CCL2 tumor; excised tumor): 26.2%
- F, Mean ([3]; Oral 20 mg/kg vs intravenous 5 mg/kg, calculated using AUClast): 0.3%
- Vd ([3]; male, ICR, mouse, plasma, 5 mg/kg, Intravenous administration, 5 mg/kg, mice, n=3, read-out: Vss, Mean): 0.71 L/kg
- Vd ([3]; male, ICR, mouse, plasma, 5 mg/kg, Intravenous administration, 5 mg/kg, mice, n=3, read-out: Vz, Mean): 1.37 L/kg
- AUC(0-inf) ([3]; male, ICR, mouse, plasma, Intravenous administration, 5 mg/kg, mice, n=3, read-out: AUCinf, Mean): 1730 ng·h/mL
- AUC(0-t) ([3]; male, ICR, mouse, plasma, Intravenous administration, 5 mg/kg, mice, n=3): 1720 ng·h/mL
- clearance ([3]; male, ICR, mouse, plasma, Intravenous administration, 5 mg/kg, mice, n=3, read-out: CL, Mean (converted)): 48.2 mL/min/kg
- MRT inf ([3]; male, ICR, mouse, plasma, Intravenous administration, 5 mg/kg, mice, n=3, read-out: MRTinf, Mean): 14.4 min
- half-life ([3]; male, ICR, mouse, plasma, Intravenous administration, 5 mg/kg, mice, n=3, read-out: t1/2, Mean (converted)): 19.8 min
- Cmax [3, 7]: 34.4 ng/mL
- Tmax [3, 7]: 15 min
- AUC(0-t) [3, 7]: 18 ng·h/mL
- IC50 (HeLa cells): 123 nM
- Residue (%) after culturing for 30 min [4]: 91.02 ± 2.89%
- half-life at 5 mM (Stability test in plasma [5]): 134 min
- Residue % (180 minutes elapsed), Mean (Stability test in plasma [5]; 5 mM): 41.74%
- Residue % (180 minutes elapsed), Mean (Stability test in plasma [6]; Human plasma): 4.20%
- half-life at 5 mM (Stability test in plasma [6]; Human plasma): 160 min
- Residue % (180 minutes elapsed), Mean (Stability test in plasma [6]; Mouse plasma): 57.25%
- half-life at 5 mM (Stability test in plasma [6]; Mouse plasma): > 180 min
